Measured values published in the NIST ThermoML archive (doi:10.1021/je060271a).
Numbers after ± are expanded uncertainties.

Details: 283.16 K, Liquid, Vibrating tube method

CCCC(=O)OCC(COC(=O)CCC)(COC(=O)CCC)COC(=O)CCC [pentaerythritol tetrabutyrate]
Details | mass density [kg/m3]
5025.9 kPa | 1062 ± 1.3
5026.2 kPa | 1062.1 ± 1.3
5026.4 kPa | 1061.9 ± 1.3
5026.6 kPa | 1061.9 ± 1.3
5037.7 kPa | 1062 ± 1.3
5052.7 kPa | 1062 ± 1.3
5084.5 kPa | 1061.9 ± 1.3
5099.4 kPa | 1062.1 ± 1.3
5117.2 kPa | 1062.1 ± 1.3
5132.1 kPa | 1062.1 ± 1.3
5146.8 kPa | 1062.1 ± 1.3
5164.5 kPa | 1062.1 ± 1.3
5180.2 kPa | 1062 ± 1.3
5195.4 kPa | 1062.1 ± 1.3
5213.6 kPa | 1062.2 ± 1.3
5229.7 kPa | 1062.1 ± 1.3
5245.8 kPa | 1062.1 ± 1.3
5261.4 kPa | 1062.2 ± 1.3
5277.3 kPa | 1062.1 ± 1.3
5296.5 kPa | 1062.2 ± 1.3
5312.6 kPa | 1062.2 ± 1.3
5328.5 kPa | 1062.1 ± 1.3
5347.8 kPa | 1062.1 ± 1.3
5364.8 kPa | 1062.2 ± 1.3
5381.7 kPa | 1062.1 ± 1.3
5398.7 kPa | 1062.3 ± 1.3
5419.8 kPa | 1062.2 ± 1.3
5436.6 kPa | 1062.3 ± 1.3
5450.9 kPa | 1062.3 ± 1.3
5465.9 kPa | 1062.2 ± 1.3
5510.3 kPa | 1062.3 ± 1.3
5516.6 kPa | 1062.3 ± 1.3
5521.7 kPa | 1062.3 ± 1.3
5526.9 kPa | 1062.3 ± 1.3
5532.8 kPa | 1062.3 ± 1.3
5538.2 kPa | 1062.2 ± 1.3
5543.2 kPa | 1062.3 ± 1.3
5548.7 kPa | 1062.2 ± 1.3
5553.9 kPa | 1062.3 ± 1.3
5560.3 kPa | 1062.2 ± 1.3
5565.4 kPa | 1062.2 ± 1.3
5570.9 kPa | 1062.4 ± 1.3
5577.1 kPa | 1062.3 ± 1.3
5582.3 kPa | 1062.3 ± 1.3
5587.5 kPa | 1062.3 ± 1.3
5592.9 kPa | 1062.4 ± 1.3
5599.3 kPa | 1062.2 ± 1.3
5604.6 kPa | 1062.4 ± 1.3
5610 kPa | 1062.4 ± 1.3
5616.4 kPa | 1062.4 ± 1.3
5621.6 kPa | 1062.3 ± 1.3
5627.3 kPa | 1062.3 ± 1.3
5632.6 kPa | 1062.3 ± 1.3
5639.2 kPa | 1062.3 ± 1.3
5644.4 kPa | 1062.3 ± 1.3
5649.9 kPa | 1062.3 ± 1.3
5655.3 kPa | 1062.3 ± 1.3
5661.7 kPa | 1062.4 ± 1.3
5667.2 kPa | 1062.2 ± 1.3
5674 kPa | 1062.4 ± 1.3
5679.3 kPa | 1062.4 ± 1.3
5684.7 kPa | 1062.3 ± 1.3
5690 kPa | 1062.3 ± 1.3
5696.8 kPa | 1062.3 ± 1.3
5702.1 kPa | 1062.4 ± 1.3
5707.9 kPa | 1062.3 ± 1.3
5713.6 kPa | 1062.5 ± 1.3
5720.3 kPa | 1062.4 ± 1.3
5725.5 kPa | 1062.5 ± 1.3
5731.2 kPa | 1062.4 ± 1.3
5736.6 kPa | 1062.5 ± 1.3
5743.3 kPa | 1062.3 ± 1.3
5749 kPa | 1062.4 ± 1.3
5754.4 kPa | 1062.4 ± 1.3
5761.1 kPa | 1062.4 ± 1.3
5766.6 kPa | 1062.4 ± 1.3
5773.7 kPa | 1062.5 ± 1.3
5779.1 kPa | 1062.4 ± 1.3
5803.1 kPa | 1062.5 ± 1.3
5808.7 kPa | 1062.4 ± 1.3
5814.4 kPa | 1062.5 ± 1.3
5821.5 kPa | 1062.5 ± 1.3
5827.2 kPa | 1062.4 ± 1.3
5833 kPa | 1062.4 ± 1.3
5839.6 kPa | 1062.5 ± 1.3
5845.5 kPa | 1062.5 ± 1.3
5851.5 kPa | 1062.4 ± 1.3
5857.2 kPa | 1062.5 ± 1.3
5864.2 kPa | 1062.5 ± 1.3
5869.9 kPa | 1062.5 ± 1.3
5876.8 kPa | 1062.5 ± 1.3
5882.3 kPa | 1062.4 ± 1.3
5888.4 kPa | 1062.6 ± 1.3
5894.6 kPa | 1062.4 ± 1.3
5901.3 kPa | 1062.5 ± 1.3
5907.2 kPa | 1062.5 ± 1.3
5913.3 kPa | 1062.5 ± 1.3
5919.5 kPa | 1062.5 ± 1.3
5926.4 kPa | 1062.5 ± 1.3
5932.3 kPa | 1062.6 ± 1.3
5938.5 kPa | 1062.6 ± 1.3
5944.6 kPa | 1062.5 ± 1.3
5951.6 kPa | 1062.5 ± 1.3
5957.7 kPa | 1062.5 ± 1.3
5963.8 kPa | 1062.5 ± 1.3
5971 kPa | 1062.5 ± 1.3
5977.1 kPa | 1062.7 ± 1.3
5983.3 kPa | 1062.6 ± 1.3
5989.3 kPa | 1062.6 ± 1.3
5996.6 kPa | 1062.6 ± 1.3
6002.8 kPa | 1062.6 ± 1.3
6009.4 kPa | 1062.5 ± 1.3
6016.2 kPa | 1062.6 ± 1.3
6022.5 kPa | 1062.7 ± 1.3
6029.9 kPa | 1062.5 ± 1.3
6036 kPa | 1062.6 ± 1.3
6042.3 kPa | 1062.6 ± 1.3
6048.4 kPa | 1062.6 ± 1.3
6056 kPa | 1062.7 ± 1.3
6062 kPa | 1062.6 ± 1.3
6068.3 kPa | 1062.6 ± 1.3
6075.9 kPa | 1062.6 ± 1.3
6082.1 kPa | 1062.6 ± 1.3
6088.5 kPa | 1062.6 ± 1.3
6095.2 kPa | 1062.7 ± 1.3
6100.5 kPa | 1062.6 ± 1.3
6106.9 kPa | 1062.6 ± 1.3
6114.5 kPa | 1062.7 ± 1.3
6120.9 kPa | 1062.6 ± 1.3
6127.1 kPa | 1062.6 ± 1.3
6134.7 kPa | 1062.6 ± 1.3
6140.7 kPa | 1062.6 ± 1.3
6147.1 kPa | 1062.7 ± 1.3
6153.9 kPa | 1062.7 ± 1.3
6161.5 kPa | 1062.6 ± 1.3
6167.9 kPa | 1062.6 ± 1.3
6174.6 kPa | 1062.7 ± 1.3
6182.6 kPa | 1062.6 ± 1.3
6188.8 kPa | 1062.7 ± 1.3
6195.4 kPa | 1062.8 ± 1.3
6202.1 kPa | 1062.6 ± 1.3
6210.1 kPa | 1062.8 ± 1.3
6216.6 kPa | 1062.6 ± 1.3
6223.4 kPa | 1062.6 ± 1.3
6229.9 kPa | 1062.6 ± 1.3
6237.5 kPa | 1062.7 ± 1.3
